Measurements: article PMC6934184, “Selective DNA-PKcs inhibition extends the therapeutic index of localized radiotherapy and chemotherapy” (The Journal of Clinical Investigation, 2019)

Biological target: T1, AKT1 (PKB alpha) (Homo sapiens, UniProt P31749)
T1 construct: purchased Thermo Fisher Scientific (Life Technologies) SelectScreen
Experiment: SelectScreen Z'LYTE
Assay type: biochemical
Summary of the method: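 Percent values come from Thermo SelectScreen profiling of NU5455, combining activity and binding assays. CSF1R was run in Z'LYTE format at Km app ATP, and CAMK1 in Adapta format with ATP listed at 10.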

T1 sequence (P31749 whole entry): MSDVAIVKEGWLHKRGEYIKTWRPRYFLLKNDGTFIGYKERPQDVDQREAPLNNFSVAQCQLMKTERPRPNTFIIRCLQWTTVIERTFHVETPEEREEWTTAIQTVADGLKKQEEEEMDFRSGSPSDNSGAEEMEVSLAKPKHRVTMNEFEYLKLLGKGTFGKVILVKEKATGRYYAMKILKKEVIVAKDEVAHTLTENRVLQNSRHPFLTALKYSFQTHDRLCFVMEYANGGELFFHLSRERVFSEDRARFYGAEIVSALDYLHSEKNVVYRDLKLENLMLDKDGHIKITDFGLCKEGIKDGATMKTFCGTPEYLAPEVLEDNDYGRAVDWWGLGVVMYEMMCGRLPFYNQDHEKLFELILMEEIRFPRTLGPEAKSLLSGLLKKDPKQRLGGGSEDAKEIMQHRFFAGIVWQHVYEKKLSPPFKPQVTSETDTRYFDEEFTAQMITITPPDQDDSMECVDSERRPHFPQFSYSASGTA

Q: CN(C(=O)CN1CCOCC1)c1ccc2sc3c(-c4cccc5c(=O)cc(N6CC7CCC(C6)O7)oc45)cccc3c2c1 [NU5455] was tested. Which inhibition at 1 µM did it give?
A: The inhibition at 1 µM was 0.5%.
